# Laboratory results: publication PMC11666850, “Development and evaluation of deuterated [^18F]JHU94620 isotopologues for the non-invasive assessment of the cannabinoid type 2 receptor in brain” (EJNMMI Radiopharmacy and Chemistry, 2024)
# What was measured:
# in vivo = details: male, Wistar, rat, iv
# Method: Female adult CD-1 mice (25–42 g body weight) were used for radiometabolite analysis of [^18F]JHU94620-d4 (n = 2, 33 and 34 MBq) and [^18F]JHU94620-d8 (n = 3, 26–33 MBq) at 30 min after intravenous tail vein injection of the radiotracer to allow for the comparison of radiometabolite analysis of [^18F]JHU94620 (Moldovan et al. [2016]). The mice were immobilized by short isoflurane narcosis for the injection of the radiotracer in a restrainer and awakened mice were kept in an isolated cage until euthanisation by cervical dislocation under isoflurane narcosis. Male Wistar rats (n = 12, 613–794 g) were used for radiometabolite analysis of [^18F]JHU94620-d8 at different time points (5, 15, 30 and 60 min p.i.) after intravenous tail vein injection of the radiotracer (37–74 MBq) for the correction of the input function in pharmacokinetic analysis. Rats were kept under isoflurane narcosis (gas mixture: 2.5% isoflurane and O2) on a warmed plate until euthanization by decapitation of deep narcotized animals. Plasma samples were obtained by centrifugation with 5500 g of blood samples for 2 min at 4 °C. Resected tissues brain and spleen were kept on ice and minced for 3 × 20 s with adding 0.5 to 1 mL of 0.9% NaCl using a Precellys lysing kit and Minilys homogenizer (Bertin Technologies SAS, Montigny-le-Bretonneux, France).
# The samples were further processed for subsequent radio-chromatographic analyses. Two consecutive extractions were performed in duplicates for plasma and brain determinations. Plasma, brain and spleen samples were added to the four time the volume of an ice-cold MeOH/H2O mixture (9:1, v/v). […] The activities of supernatants and precipitates were measured in a γ-counter (1480 WIZARD, Perkin Elmer), and the extraction efficiencies were calculated as the ratio of radioactivity in the supernatant to the radioactivity in the original sample (supernatant + precipitate). The supernatants from both extractions were combined, concentrated at 70 °C under argon stream up to a remaining volume of 100 µL, and subsequently analysed by analytical radio-HPLC (method A or B).
# in vitro = in vitro ADME; details: microsomes, pH 7.4
# Method: For microsomal incubations liver microsomes from human (HLM, 50 donors, 20 mg/mL) and rat (RLM, Sprague Dawley, 20 mg/mL) were purchased from Thermo Fisher Scientific GmbH (Dreieich, Germany). Testosterone and β-nicotinamide adenine dinucleotide 2′-phosphate reduced tetrasodium salt (NADPH) were purchased from Sigma-Aldrich (Merck KGaA, Darmstadt, Germany) and Dulbecco’s PBS (DPBS) (without Ca^2+ and Mg^2+) was purchased from Biochrom GmbH (Berlin, Germany). Analyses of samples for comparison of radiometabolite patterns were performed by radio-HPLC using method B, for determination of time dependency of the metabolic depletion using method C.
# The final concentrations are given in brackets. […] The mixtures were vortexed and shaken gently at 37 °C using the BioShake iQ (QUANTIFOIL Instruments, Jena, Germany) for 5, 10, 15, 30, 45, and 60 min (for HLM) or 15, 30, 45, and 60 min (for RLM). […] The supernatants were separated and analyzed by radio-HPLC to determine the fractions of unchanged [^18F]JHU94620-d8. Efficiencies of extracted activity were determined as described in “Quantification of radiometabolites”. […]
# To determine the metabolic stability in HLM and RLM, both the natural logarithm of the determined unchanged percentage of [^18F]JHU94620-d8 was plotted versus incubation time, which allowed the calculation of the in vitro half-lives as described previously (Chai et al. [2022]).
# [1] = assay type: in vitro ADME; details: Wistar, rat
# Method: From the wildtype rats used for in vivo metabolism studies a hematocrit content of 0.56 ± 0.04 (n = 11) was determined by a 5 min centrifugation of 50 µl blood in a hematocrit centrifuge at 500 g. The free plasma fraction (fp) of [^18F]JHU94620-d8 was determined gravimetrically by ultrafiltration of 100 µl rat plasma samples incubated for 5, 15, 30 and 60 min at 37 °C for 20 min at 14,000 g utilizing Nanosep® centrifugal filters (10 kDa, Pall Laboratory, USA). The brain PET images were co-registered to the PMOD integrated Px Rat (W. Schiffer) T2 MR template and the brain stem, cerebellum, left cortex and left midbrain region from the corresponding brain atlas were used for the determination of the regional TACs. Due to high spillover signals from the hCB2R(D80N) expressing region not all provided atlas regions could be evaluated. Subsequently, the total tissue distribution (VT) was estimated by 2-tissue compartment modelling. For correction of the TACs, an averaged image-derived input function (pIDIF, plasma-to-whole blood ratio corrected), determined in biodistribution studies and the parent fraction derived from metabolism studies in Wistar rats (Watabe fit) and pIDIF (3-exponential fit) were integrated into the modelling process. The binding potential was estimated by a simplified reference tissue modelling (SRTM) using the cerebellar region as reference. […]
compound,measurement,setting,value
[2H]C([2H])([18F])C([2H])([2H])C([2H])([2H])C([2H])([2H])n1c(C)c(C)s/c1=N\C(=O)C1C(C)(C)C1(C)C [[^18F]JHU94620-d8],half-life,in vivo; metabolic half-life (t1/2) in brain,53.8 min
same,half-life,in vivo; metabolic half-life (t1/2) in plasma,7.6 min
same,half-life,in vivo; metabolic half-life (t1/2) in spleen,37.3 min
same,half-life,"in vitro; Sprague Dawley, rat",10.8 ± 2.4 min
same,half-life,in vitro; human,2.1 ± 0.7 min
same,free plasma fraction (fp),[1],0.3 ± 0.1
